Data: patent US20100286139A1, “AMINO PYRAZOLE COMPOUND” (ELI LILLY AND COMPANY, priority 2008, published 2010)

Target: T1, JAK2 (Homo sapiens, UniProt O60674)
T1 construct: endogenous in cells; host or cells: TF-1 (human erythroid leukemia) cells, EPO-stimulated
Assay: JAK2 EPO-TF1/pSTAT5 cell-based assay (Cellomics ArrayScan HCS)
Conditions: TF-1 cells, EPO 1.6 U/mL stimulated, n=4; read-out: relative IC50, inhibition of pSTAT5
Source text: JAK2 EPO-TF1/pSTAT5 cell-based assay mimics the constitutive activation of JAK2-STAT5 in erythroid progenitor cells, which drives the overproduction of red blood cells, a marker of polycythemia vera (PV).
TF-1 (human erythroid leukemia) cells are maintained in RPMI 1640 (RPMI-1640 was developed by Moore et. al. at Roswell Park Memorial Institute. The formulation is based on the RPMI-1630 series of media utilizing a bicarbonate buffering system and alterations in the amounts of amino acids and vitamins.) with 10% fetal bovine serum (FBS), 0.075% sodium bicarbonate, 1 mM sodium pyruvate, 1× antibiotic/antimycotic (Invitrogen, Carlsbad, Calif.) and 0.45% glucose. The medium is supplemented with GM-CSF (granulocyte-macrophage colony-stimulating factor) at a final concentration of 2 ng/mL. Cells are kept at 37° C. with 5% CO2. Cells are starved in serum free medium to remove endogenous growth factors. TF-1 cells are counted and cells are collected to seed 2×10^7 cells per 96-well plate at a density of 2×10^5 cells per well. […]
To perform the assay, serum-starved cells are collected and washed once with unsupplemented RPMI 1640 medium. […] An aliquot of 200 μL of 1 to 10 dilution of Mouse anti-pSTAT5 (pY694) Alexa Fluor 647® in fluorescence activated cell sorting (FACS) buffer is added to the cells. […]

T1 sequence (O60674 whole entry): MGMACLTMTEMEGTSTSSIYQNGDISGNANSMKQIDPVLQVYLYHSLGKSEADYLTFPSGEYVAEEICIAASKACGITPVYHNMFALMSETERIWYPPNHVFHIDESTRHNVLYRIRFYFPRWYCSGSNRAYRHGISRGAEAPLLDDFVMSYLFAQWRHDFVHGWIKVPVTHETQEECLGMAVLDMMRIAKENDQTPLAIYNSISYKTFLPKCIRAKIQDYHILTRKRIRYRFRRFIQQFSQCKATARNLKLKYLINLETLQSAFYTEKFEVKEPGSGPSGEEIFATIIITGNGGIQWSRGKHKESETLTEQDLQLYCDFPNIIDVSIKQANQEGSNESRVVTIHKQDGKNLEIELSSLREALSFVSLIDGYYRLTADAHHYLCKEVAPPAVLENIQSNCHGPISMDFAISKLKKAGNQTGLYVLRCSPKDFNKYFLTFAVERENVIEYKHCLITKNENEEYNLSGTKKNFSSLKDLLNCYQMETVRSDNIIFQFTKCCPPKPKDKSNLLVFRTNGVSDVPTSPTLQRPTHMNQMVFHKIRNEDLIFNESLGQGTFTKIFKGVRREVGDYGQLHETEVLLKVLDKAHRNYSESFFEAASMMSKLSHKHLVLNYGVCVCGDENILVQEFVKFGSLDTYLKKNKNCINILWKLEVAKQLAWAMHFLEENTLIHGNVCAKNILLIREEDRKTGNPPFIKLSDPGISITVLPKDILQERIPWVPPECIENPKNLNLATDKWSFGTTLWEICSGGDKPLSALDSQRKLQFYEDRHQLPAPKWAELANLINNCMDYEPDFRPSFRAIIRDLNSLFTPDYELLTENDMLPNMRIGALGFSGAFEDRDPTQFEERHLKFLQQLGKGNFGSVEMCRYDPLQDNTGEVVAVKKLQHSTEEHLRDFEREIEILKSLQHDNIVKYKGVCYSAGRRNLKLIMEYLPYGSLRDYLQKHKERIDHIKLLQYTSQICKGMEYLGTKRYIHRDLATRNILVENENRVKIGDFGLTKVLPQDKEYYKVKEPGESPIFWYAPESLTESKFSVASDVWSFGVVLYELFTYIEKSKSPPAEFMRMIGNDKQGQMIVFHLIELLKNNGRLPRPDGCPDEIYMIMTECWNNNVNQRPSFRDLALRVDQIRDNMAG

- IC50: 33 nM
SMILES: Cc1cc(Nc2cc(CN3CCOCC3)c3nc(C)c(Cc4ccc(Cl)cc4F)n3n2)n[nH]1 [3-(4-Chloro-2-fluorobenzyl)-2-methyl-N-(5-methyl-1H-pyrazol-3-yl)-8-(morpholinomethyl)imidazo[1,2-b]pyridazin-6-amine]
